# From paper PMC10989506, “Cell penetration of oxadiazole-containing macrocycles” (RSC Chemical Biology, 2024)
# Values joined by “and” are separate entries in the source; they are usually repeats but may differ in a detail not shown here. Equal values may be shown once. *1 amine or outer side, *2 acyl side, *3 side chain or, on linkers, in order; H or OH if unused. Where a SMILES comes first, the peptide text is derived from it. Side-chain parts run from the residue outwards. The star is where a group is joined. NH(CH2CH2O)2(CH2)6Cl = ClCCCCCCOCCOCCN*; Suc = O=C(CCC(=O)[*:2])[*:1]
# Assays:
# [1] = PAMPA; for −log Pe: pH 7.4
# Protocol: (§1) 5 Parallel Artificial Membrane Permeability Assay (PAMPA)
# (§2) PAMPA analysis was conducted following a procedure reported by Lokey and coworkers. 9 Each measurement was conducted at room temperature in an insulated polystyrene box to maintain a constant internal temperature. Measurements were taken in triplicate, and the reported permeability values are the average value over the three runs. Carbamaz epine was included in the stock solution of each cyclic peptide to verify the integrity of the membrane as an internal standard.
# (§3) Preparation of stock solution for donor well: Stock solutions were prepared by dissolving the […]
# cyclic peptide (0.5 mM) and carbamazepine (0.5 mM) (as an internal standard) in DMSO at a gross […]
# concentration of 1 mM. 10 μL of this stock solution was added to 990 μL PBS buffer (pH 7.4) to […]
# give a 1 mL solution (10 μM, 1% DMSO v/v) for addition to the donor plate wells.
# Preparation of acceptor plate: A stock solution of 5% DMSO in PBS buffer was prepared, and […]
# 300μL of this solution was added to each of the acceptor wells (96-well Teflon acceptor plate […]
# Preparation of donor plate: 100 mg of lethicin (90%, soybean) was suspended in n -dodecane (10 […]
# mL) and sonicated to give a homogenous, clear solution. 5 μL of this solution was carefully applied […]
# to the membrane in the 96-well donor plate (with 0.45 μm hydrophobic Immobilon-P membrane […]
# supports (Millipore MAIPNTR10)) (with care, without touching the membrane). Shortly after (~5 - […]
# 15 min), 150 μL of the 10 μM stock solution of cyclic peptide and carbamazepine (prepared as […]
# above) were added to the donor well. The donor plate was placed on top of the acceptor wells and […]
# [2] = tested on: HeLa cells stably expressing the HaloTag-GFP-Mito construct; experiment: Chloroalkane Penetration Assay (CAPA); assay type: cell-based
# Description: Cell-based assays such as the Caco-2 assay and Madin–Darby canine kidney cell line (MDCK) permeability assay have been employed to offer a fuller assessment of transport in vitro.[22,23] The chloroalkane penetration assay (CAPA) is a relatively recent methodology for measuring cell penetration in live cells (Fig. 1d).[24] This assay uses cells that express a modified haloalkane dehalogenase known as HaloTag that reacts rapidly, selectively, and irreversibly with small chloroalkane ligands.[25,26] CAPA measures cytosolic penetration by pulsing cells with a chloroalkane-tagged compound (ct-compound), then chasing with a chloroaklane-tagged dye (ct-dye). If the ct-compound penetrates the cell and escapes from endosomes, it reacts with HaloTag and blocks the reaction with the ct-dye in the subsequent chase step. Thus, in CAPA, cell penetration of the ct-molecule is inversely proportional to the signal from the ct-dye retained in the cells. The dose dependence of this signal can be fit to a sigmoidal curve, whose midpoint value (called the CP50) can be compared among ct-compounds as a quantitative comparison of cell penetration.[27,28] CAPA is a cost-effective and high-throughput method for measuring the cell penetration of cyclic peptides and other molecules, and it establishes penetration to the cytosol without interference from material trapped in endosomes. In this work, we use CAPA to investigate the cell penetration of Odz macrocycles.
# 3 Chloroalkane Penetration Assay (CAPA)
# Media was aspirated and cells were
# washed with serum-free media.
# Lysate stability assays were performed essentially as described. 8 For lysate stability assays, HeLa
# in vitro = experiment: in vitro
# Protocol: (1 picture or pasted object on this page, not shown here) […]
# were taken at each time point and quenched in 160 μL of ice-cold methanol. Samples were spun down for 10 min at 21,000 g prior to analysis by reverse phase analytical HPLC on a C18 column.
# Chromatogram peaks were integrated to measure amount of peptide remaining at each time point.
# Peak volumes for each timepoint were normalized to the zero-hour timepoint to determine percentage of peptide remaining. Data presented are the average of three biological replicates performed with different lysates on different days.
# as §1, §2, §3
# [3] = Relative hydrophobicity by reverse-phase HPLC retention time; assay type: physicochemical; conditions: C18 LC-MS, gradient 95%/5% MeCN to 100% MeCN over 15 min; measure of relative lipophilicity
# Description: To provide additional evidence for this hypothesis, we used the retention time on reverse phase HPLC as a measure of the overall relative lipophilicity. […] Overall, the more lipophilic cyclic peptides had more efficient cell penetration than the more hydrophilic ones.
SMILES,−log Pe [1],further results
"NC(=O)N1c2ccccc2C=Cc2ccccc21 [carbamazepine, reference compound]",,-Log Papp [1]: 5.7–5.8
CC[C@H]1C2=NN=C(O2)[C@H](Cc2ccccc2)NC(=O)[C@H](CCCCNC(=O)CCC(=O)NCCOCCOCCCCCCCl)NC(=O)[C@H](CC(=O)O)NC(=O)[C@H](CC(=O)O)NC(=O)[C@@H]2CCCN21 [Compound 7],>8,
CC(C)C[C@@H]1NC(=O)CNC(=O)[C@@H]2CCCN2C(=O)[C@H](C)NC(=O)[C@H](Cc2ccccc2)NC(=O)[C@H](CCCCNC(=O)CCC(=O)NCCOCCOCCCCCCCl)NC1=O [Compound 8] (cyclo(PGLK([Suc-NH(CH2CH2O)2(CH2)6Cl])FA)),>8,"cell penetration, fold worse than compound 1 ([2]; CAPA CP50 compared with compound 1): more than 20 fold; CP50 after 30 min incubation ([2]; ct-peptides incubated with cells in Opti-MEM for 30 min prior to chasing with ct-dye): 1.0 µM and 1.0 ± 0.03 µM; CP50 after 4 h incubation ([2]; ct-peptides incubated with cells in Opti-MEM for 4 h prior to chasing with ct-dye): 0.22 µM and 0.22 ± 0.02 µM; intact compound remaining in HeLa lysate (in vitro; 4 h): almost no intact macrocycle; remaining at 1 h, 150 μM (in vitro; human, cells or culture medium, pH 8): ~50%; T ret [3]: 7.95 min"

# Continued, in another order:
−log Pe [1],SMILES,further results
>8,CC[C@H]1C2=NN=C(O2)[C@H](CCCCNC(=O)CCC(=O)NCCOCCOCCCCCCCl)NC(=O)CNC(=O)[C@H](CC(C)C)NC(=O)CNC(=O)[C@@H]2CCCN21 [Compound 5],
7.85 ± 0.052,CC[C@@H]1N[C@@H](CCCCNC(=O)CCC(=O)NCCOCCOCCCCCCCl)C(=O)NCC(=O)N[C@@H](CC(C)C)C(=O)NCC(=O)N[C@@H](Cc2ccccc2)C2=NN=C1O2 [Compound 4],
7.84 ± 0.04,CC[C@H]1C2=NN=C(O2)[C@H](Cc2ccccc2)NC(=O)CNC(=O)[C@H](CC(C)C)NC(=O)[C@H](CCCCNC(=O)CCC(=O)NCCOCCOCCCCCCCl)NC(=O)[C@@H]2CCCN21 [Compound 3],
>8,CC[C@H]1C2=NN=C(O2)[C@H](Cc2ccccc2)NC(=O)[C@H](CCCCNC(=O)CCC(=O)NCCOCCOCCCCCCCl)NC(=O)[C@H](CC(C)C)NC(=O)[C@H](CC(=O)O)NC(=O)[C@@H]2CCCN21 [Compound 6],
7.92 ± 0.07,CC[C@H]1C2=NN=C(O2)[C@H](Cc2ccccc2)NC(=O)CNC(=O)[C@H](CCCCNC(=O)CCC(=O)NCCOCCOCCCCCCCl)NC(=O)CNC(=O)[C@@H]2CCCN21 [Compound 2],
